Several values for one entry are separate records, joined by “and”; a condition that tells them apart may be missing. Equal entries are not always repeated. Where two headings read alike, the source gives them in different places.

For data set [1], the system named is Herpes simplex virus type I (Seibert strain). The data set can be described thus: microbe, parasite or virus in culture. The class given is cell-based. The following applies: read-out: Plaque Formation Efficiency, Acv.
Data set [2] can be described thus: Acv concentration in guinea pig blood. The following applies: for concentration at 1 h: serum, 200 mg, one hour. The class given is in vivo. The protocol: An Acv suspension or a mixture of Acv and an extract solution of Cryt. f.# was orally or intragastrointestinally administered to a guinea pig. One hour from the administration, blood was taken from the heart, and an inactivated serum was prepared therefrom in the same manner as in Test Example 9.
(§1) To a 100 μl aliquot of the serum were added 100 μl of acetonitrile and 20 μl of a 100 mM sodium acetate solution, and the mixture was centrifuged (10000 rpm×10 mins.).
(§2) The sample solution was separated into Acv and adenine by reverse phase liquid chromatography in a usual manner. Each peak area was measured with an automatic integrator, and the Acv content was obtained from the previously prepared calibration curve.

The nature of data set [3]: Acv level in mouse blood (p.o.). The data set is classed as in vivo, DDY male mouse. The protocol: as §1, §2
Further, 0.5 ml of an Acv preparation or 0.5 ml of a mixture of Acv and a varied concentration of Cryt. f.# extract solution was orally administered to a 6-week-old DDY male mouse, and the Acv concentration in blood was measured in the same manner as described above. […] Accordingly, the Cryt. f.# extract solution is believed to have antiherpesviral activity by itself.

For data set [4] the following is noted: lung; cited from earlier work.

Consider `Nc1nc2c(ncn2COCCO)c(=O)[nH]1` [Acyclovir, acyclovir], for which, in data set [1], the activity at 0.35 µg/mL is 53.6%. In data set [2] (Table 12), the “effect of Cryt. f.# on Acv absorption” value is on record as “it is not recognized that the Acv absorption was accelerated”. In addition, the concentration at 1 h in data set [2] (Acv (200 mg) + 1 mg/ml of Cryt. f.#, individual samples, read-out: Acv Concentration in Blood) worked out at 76400 nM; in data set [2] (Acv (200 mg) + 1 mg/ml of Cryt. f.#, read-out: Acv Concentration in Blood, Mean ± σ) it was 92900 ± 31900 nM; in data set [2] (Acv (200 mg) + 5 mg/ml of Cryt. f.#, individual samples, read-out: Acv Concentration in Blood) it was 92900 nM; in data set [2] (Acv (200 mg) + 5 mg/ml of Cryt. f.#, read-out: Acv Concentration in Blood, Mean ± σ) it was 88300 ± 17400 nM; in data set [2] (Acv (200 mg) + 20 mg/ml of Cryt. f.#, read-out: Acv Concentration in Blood, Mean ± σ), 72200 ± 70400 nM; in data set [2] (Acv (200 mg), read-out: Acv Concentration in Blood, Mean ± σ) it was 88600 ± 85600 nM. Besides, the concentration was 2280 ± 1490 nM in data set [3] (Acv (10 mg/kg) p.o., read-out: Acv Blood Level, Mean ± σ); 1700 nM and 1400 nM and 1600 nM and 2500 nM and 4700 nM and 2900 nM and 2000 nM and 2400 nM and 9500 nM and 2300 nM in data set [3] (Acv (100 mg/kg) + 2 mg/ml of Cryt. f.#, p.o., individual samples, listed as Acv, 100 mg/kg, read-out: Acv Blood Level); 3100 ± 2430 nM in data set [3] (Acv (100 mg/kg) + 2 mg/ml of Cryt. f.#, p.o., read-out: Acv Blood Level, Mean ± σ); 2300 nM and 1100 nM and 3500 nM and 1600 nM and 1900 nM and 2600 nM and 1500 nM and 5200 nM in data set [3] (Acv (100 mg/kg) + 10 mg/ml of Cryt. f.#, p.o., individual samples, listed as Acv, 100 mg/kg, read-out: Acv Blood Level); 2460 ± 1330 nM in data set [3] (Acv (100 mg/kg) + 10 mg/ml of Cryt. f.#, p.o., read-out: Acv Blood Level, Mean ± σ); 2590 ± 1530 nM in data set [3] (Acv (100 mg/kg) + 20 mg/ml of Cryt. f.#, p.o., read-out: Acv Blood Level, Mean ± σ). In addition, the “effect of Cryt. f.# on Acv concentration in blood” value in data set [3] (mouse, Table 13) was “no increase in Acv concentration in blood was observed”.
For the compound `C=CC[C@@H]1/C=C(\C)C[C@H](C)C[C@H](OC)[C@H]2O[C@@](O)(C(=O)C(=O)N3CCCC[C@H]3C(=O)O[C@H](/C(C)=C/[C@@H]3CC[C@@H](O)[C@H](OC)C3)[C@H](C)[C@@H](O)CC1=O)[C@H](C)C[C@@H]2OC` [FK 506], the distribution result in data set [4] is “concentrated in the lung”.

The values above are taken from US5411733A (priority 1992, dated 1995).
